# Assay: Transdermal electrotransport delivery of goserelin at current densities of 50 and 100 μA/cm^2 (Example 3)
# Format: in vivo, human
# Settings: for average transdermal goserelin flux: 8 hours, 12 volunteers
# Procedure: This study was undertaken to evaluate the relationship between current density and drug flux in the transdermal electrotransport delivery of goserelin. The study involved the application of electrotransport devices, applying constant current, to 12 normal male volunteers for a duration of 8 hours.
# The two electrotransport treatment regimens in this study differed only in applied current density levels. The electrotransport devices delivered goserelin through the skin from polyvinyl alcohol (PVOH)-based donor hydrogels having a skin-contact surface area of 4 cm^2. The gels contained an aqueous goserelin solution. The current density levels used in this study were 50 and 100 μA/cm^2. After an 8 hour treatment period, the electrotransport devices were removed. The skin site was then washed to remove any residual goserelin. All 12 volunteers received each treatment seven days apart.
# For each treatment, seven blood samples were taken over a 24 hour period commencing with the application of current from the electrotransport devices. Serum goserelin concentrations from each patient were used to calculate mean drug flux and the mean total amount of drug delivered.
smiles,measurement,setting,value
CC(C)C[C@H](NC(=O)[C@@H](COC(C)(C)C)NC(=O)[C@H](Cc1ccc(O)cc1)NC(=O)[C@H](CO)NC(=O)[C@H](Cc1c[nH]c2ccccc12)NC(=O)[C@H](Cc1cnc[nH]1)NC(=O)[C@@H]1CCC(=O)N1)C(=O)N[C@@H](CCCNC(=N)N)C(=O)N1CCC[C@H]1C(=O)NNC(N)=O [goserelin],average transdermal goserelin flux,"50 μA/cm^2, constant current",5.8 µg/h
same,average transdermal goserelin flux,"100 μA/cm^2, constant current",21.6 µg/h
same,increase in drug flux,current density rises from 50 to 100 μA/cm^2,four

# Source: patent US7212853B1 (priority 1996, dated 2007)
